Some test systems named below: SK-OV-3; KM12; HCT-116; HT-29; OVCAR-3; MOLT-4; OVCAR-8; EKVX; 786-0; SF-268; COLO 205; UACC-62; U-251; A549; LOX IMVI; CAKI-1; LXFL 529; NCI-H23.
Assay in all cases: DTP human tumour cell line panel, 48 h

For orientation: GI50 means the concentration that inhibits growth by half.

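Dose response: 5 concentrations. Exposure: 48 h. Format: 96-well plates. Endpoint: linear interpolation; highest concentration if not reached. GI50: concentration for 50% inhibition of growth.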 Activity calls are given as the source filed them. No stated cut-off is given here; in the data, active = GI50 up to about 1.1 µM and inactive = higher. Bounds are passed on as bounds.

Regarding `O=c1c(-c2cccc3ccccc23)c(-c2cccc3ccccc23)c1=O`, the GI50 is 10.8 µM (inactive) in the assay with SK-OV-3; 0.608 µM (active) in the assay on KM12; 1.85 µM (inactive) in the assay on HCT-116; 0.35 µM (active) with HT-29; 0.577 µM (active) in the assay with OVCAR-3; 1.59 µM (inactive) in the assay on MOLT-4. The GI50 in the assay on OVCAR-8 was 2.81 µM (inactive); with EKVX, 7.67 µM (inactive); in the assay on 786-0, 0.535 µM (active); with SF-268, 5.47 µM (inactive); with COLO 205 it was 0.363 µM (active); in the assay on UACC-62, 1.04 µM (active). For the same molecule, the GI50 was 3.31 µM (inactive) in the assay on U-251; 0.741 µM (active) in the assay on A549; 1.77 µM (inactive) with LOX IMVI; 2.91 µM (inactive) in the assay with CAKI-1; 3.05 µM (inactive) in the assay on LXFL 529; 2.49 µM (inactive) in the assay with NCI-H23.
Consider `CCCCCCN(N)C(=O)CC#N`, for which the GI50 was > 100 µM (inactive) with SK-OV-3; 23 µM (inactive) with KM12; 47.6 µM (inactive) with HCT-116; > 100 µM (inactive) in the assay on HT-29; 79.1 µM (inactive) in the assay with OVCAR-3; 35.5 µM (inactive) in the assay with MOLT-4. In addition, the GI50 in the assay on OVCAR-8 was > 100 µM (inactive); with EKVX, > 100 µM (inactive); in the assay with 786-0, > 100 µM (inactive); in the assay with SF-268, > 100 µM (inactive); with COLO 205, 96.2 µM (inactive); in the assay on UACC-62, 60.4 µM (inactive). Further, the GI50 in the assay with U-251 was 74.5 µM (inactive); in the assay on A549, > 100 µM (inactive); in the assay on LOX IMVI it was 72.1 µM (inactive); in the assay on CAKI-1 it was > 100 µM (inactive); with LXFL 529, > 100 µM (inactive); with NCI-H23, 65.6 µM (inactive).
For `Cc1c(C(=O)CC(=O)C(=O)Nc2ccc(Cl)c(Cl)c2)[n+]([O-])c2ccccc2[n+]1[O-]`, the GI50 in the assay on SK-OV-3 was 41.6 µM (inactive); with KM12, 25.1 µM (inactive); in the assay with HCT-116 it was 19 µM (inactive); with HT-29 it was 29.9 µM (inactive); in the assay with OVCAR-3 it was 2.42 µM (inactive); with MOLT-4 it was 20.8 µM (inactive). The GI50 in the assay with OVCAR-8 is 17.2 µM (inactive); in the assay with EKVX, 12.5 µM (inactive); in the assay on 786-0, 25.8 µM (inactive); in the assay on SF-268, 29.1 µM (inactive); with COLO 205, 19.4 µM (inactive); with UACC-62, 17.3 µM (inactive). For the same molecule, the GI50 was 26.8 µM (inactive) with U-251; 27 µM (inactive) in the assay with A549; 21.1 µM (inactive) in the assay with LOX IMVI; 51.9 µM (inactive) in the assay with CAKI-1; 16.3 µM (inactive) with LXFL 529; 28.6 µM (inactive) in the assay with NCI-H23.
Take `O=NN(CCCl)C(=O)N[C@H]1CC[C@H](CC(=O)O)CC1`: the GI50 in the assay with SK-OV-3 was > 100 µM (inactive); in the assay with KM12, > 100 µM (inactive); with HCT-116 it was > 100 µM (inactive); in the assay with HT-29, > 100 µM (inactive); with OVCAR-3, > 100 µM (inactive); in the assay with MOLT-4 it was 11.9 µM (inactive). The GI50 in the assay on OVCAR-8 was > 100 µM (inactive); in the assay on EKVX it was > 46.5 µM (inactive); in the assay on 786-0, 44 µM (inactive); with SF-268, 18.5 µM (inactive); with COLO 205, > 100 µM (inactive); in the assay on UACC-62 it was 15.4 µM (inactive). The GI50 in the assay with U-251 is 33.2 µM (inactive); with A549, 87.3 µM (inactive); with LOX IMVI it was 22.1 µM (inactive); with CAKI-1, > 100 µM (inactive); with LXFL 529, > 100 µM (inactive); with NCI-H23 it was > 89.1 µM (inactive).
On to `Cc1cc(O)c2c3c1C(=O)Oc1c(CO)c(O)c(C(=O)O)c(c1O3)C=NN=Cc1c3c(c(CO)c(O)c1C(=O)O)OC(=O)c1c(C)cc(O)c(c1O3)C=NN=C2`, for which the GI50 with SK-OV-3 was > 100 µM (inactive); in the assay on KM12, 48.6 µM (inactive); with HCT-116, > 100 µM (inactive); in the assay on HT-29, > 100 µM (inactive); with OVCAR-3 it was 32.7 µM (inactive); with OVCAR-8, > 100 µM (inactive). The GI50 in the assay with EKVX, in the assay on 786-0, with SF-268, in the assay on COLO 205, in the assay on UACC-62 and in the assay with U-251 was > 100 µM (inactive) each time. Also, the GI50 with A549, in the assay with LOX IMVI, in the assay with CAKI-1, with LXFL 529 and with NCI-H23 was > 100 µM (inactive) throughout.
Turning to `O=C1N[C@H](Cc2c[nH]cn2)C(=O)N2CCC[C@@H]12`, the GI50 in the assay with SK-OV-3, in the assay on KM12, with OVCAR-3, in the assay on MOLT-4, in the assay with OVCAR-8 and with EKVX was > 100 µM (inactive) in each case. Moreover, the GI50 in the assay on 786-0, with SF-268, in the assay on COLO 205, in the assay on UACC-62, in the assay on A549 and in the assay with LOX IMVI was > 100 µM (inactive) throughout. Further, the GI50 in the assay with CAKI-1, in the assay on LXFL 529 and with NCI-H23 was > 100 µM (inactive) in each case.
Take `Cn1ccnc1CCc1c(Cl)cccc1Cl`: the GI50 in the assay with SK-OV-3, in the assay on KM12, in the assay on HCT-116, in the assay with HT-29, in the assay with OVCAR-3 and in the assay on MOLT-4 was > 100 µM (inactive) in each case. Further, the GI50 in the assay on OVCAR-8, with 786-0, with SF-268, in the assay with COLO 205, in the assay on UACC-62 and with U-251 was > 100 µM (inactive) each time. The GI50 in the assay on A549, in the assay with LOX IMVI, in the assay on CAKI-1, with LXFL 529 and in the assay on NCI-H23 was > 100 µM (inactive) each time.
Regarding `O=C1OC(=O)C([Se]c2ccccc2)=C1[Se]c1ccccc1`, the GI50 was > 100 µM (inactive) with SK-OV-3; > 100 µM (inactive) in the assay on HCT-116; 44.9 µM (inactive) in the assay with HT-29; > 100 µM (inactive) with OVCAR-3; > 100 µM (inactive) in the assay on MOLT-4; > 100 µM (inactive) in the assay with OVCAR-8. Also, the GI50 in the assay on EKVX, with 786-0, in the assay with SF-268, in the assay with COLO 205, with UACC-62 and with U-251 was > 100 µM (inactive) each time. In addition, the GI50 was > 100 µM (inactive) in the assay with A549; > 100 µM (inactive) in the assay on LOX IMVI; > 100 µM (inactive) in the assay on CAKI-1; > 100 µM (inactive) in the assay with LXFL 529; 32.4 µM (inactive) in the assay with NCI-H23.
As to `C/C(=C1/N=C(c2cc([N+](=O)[O-])ccc2Cl)N(c2ccc(Br)cc2)C1=O)c1ccc(N(CCC#N)CCC#N)cc1C`, the GI50 in the assay with SK-OV-3 is > 100 µM (inactive); in the assay on KM12, 15.1 µM (inactive); in the assay with HCT-116, 15.6 µM (inactive); with HT-29 it was 36.9 µM (inactive); in the assay with OVCAR-3, 24.5 µM (inactive); in the assay with MOLT-4, 9.62 µM (inactive). The GI50 with OVCAR-8 was 43.5 µM (inactive); with EKVX, > 100 µM (inactive); in the assay on 786-0 it was 29.6 µM (inactive); with SF-268, 61.7 µM (inactive); in the assay on COLO 205, 32.2 µM (inactive); in the assay on UACC-62 it was 3.61 µM (inactive). The GI50 in the assay on A549 is 22.5 µM (inactive); in the assay on LOX IMVI, 7.5 µM (inactive); in the assay with CAKI-1, 52.4 µM (inactive); with LXFL 529, 8.11 µM (inactive); with NCI-H23 it was 42.7 µM (inactive).
Consider `Cc1cc(Cl)ccc1NC(=O)/C(=N\NC(C)(C)C)C(C#N)c1nc(-c2ccc([N+](=O)[O-])cc2)cs1` (stereo not drawn), for which the GI50 with SK-OV-3 is > 100 µM (inactive); in the assay on KM12, > 100 µM (inactive); with HCT-116 it was > 100 µM (inactive); in the assay on HT-29, > 100 µM (inactive); in the assay on OVCAR-3, > 100 µM (inactive); with MOLT-4 it was 5.79 µM (inactive). Moreover, the GI50 in the assay on OVCAR-8, in the assay on EKVX, in the assay on 786-0, with SF-268, with UACC-62 and in the assay with U-251 was > 100 µM (inactive) each time. Also, the GI50 in the assay on A549, in the assay with LOX IMVI, in the assay on CAKI-1, in the assay with LXFL 529 and with NCI-H23 was > 100 µM (inactive) throughout.
With `N#Cc1c(-c2ccc(Cl)c(Cl)c2)c(-c2ccc(Cl)c(Cl)c2)nn(CC(=O)O)c1=O`, the GI50 in the assay on SK-OV-3 is > 100 µM (inactive); in the assay on KM12, 43.7 µM (inactive); in the assay on HCT-116, 41.5 µM (inactive); in the assay on HT-29 it was 33.3 µM (inactive); with OVCAR-3, 27.2 µM (inactive); with MOLT-4, 68.4 µM (inactive). Also, the GI50 in the assay on OVCAR-8 was 57 µM (inactive); in the assay with EKVX, > 100 µM (inactive); with 786-0 it was > 100 µM (inactive); in the assay on COLO 205, 71.4 µM (inactive); with UACC-62, > 100 µM (inactive); in the assay on U-251, 32.1 µM (inactive). The GI50 is 87.7 µM (inactive) in the assay with A549, 41.3 µM (inactive) in the assay on LOX IMVI, 38.5 µM (inactive) in the assay on CAKI-1 and 72.4 µM (inactive) in the assay with LXFL 529.

The record behind these values is ChEMBL document CHEMBL1201862, “PubChem BioAssay data set” (2004).
